Each structure is given as a SMILES string. Converted amounts (≈) assume the structure as drawn.

The test system of the assay is Candida albicans. The experiment in a line: In vitro antifungal activity against candida albicans (IP 1180.79). Format: functional.

Broadly, the MIC is the lowest concentration found to suppress growth. The low end stands for greater potency, the high end for weaker potency. In turn, `C[C@H](CCCC(C)(C)N)C1CC[C@@]2(C)C3=C(CC[C@]12C)[C@@]1(C)CC[C@H](O)C(C)(C)C1CC3` (some centres not stated) came in with a minimal inhibitory concentration (MIC) of 60 µM (≈ 26.6 µg/mL).

The compound `C[C@H](CCCC(C)(C)N)C1CCC2C3CC=C4C[C@@H](O)CC[C@]4(C)C3CC[C@@]21C` (some centres not stated) displayed an MIC of 4 µM (≈ 1.61 µg/mL). Compared with the last compound, the MIC is about 15-fold lower.

(Values after ChEMBL document CHEMBL1131739, “Synthesis of 25-aminosterols, new antifungal agents” (1999).)
